Consider one compound from patent US12630520B2, “Left-handed bicyclic morpholine and salt thereof, preparation method therefor, pharmaceutical composition, and use” (Institute of Materia Medica, Chinese Academy of Medical …, priority 2019, dated 2026).

Structures are written as SMILES.

In assay [1] the test system is HepG2 cells. As to the kind of experiment: Carbon tetrachloride (CCl4)-induced in vitro hepatocyte injury, MTT. The format is cell-based, human. Particulars: HepG2, 10 μM. Here is the method:
Human liver cancer HepG2 cells well retained the characteristics of normal human hepatocytes, and they were grown in a DMEM medium containing 10% of fetal calf cerium (containing 100 U/mL of penicillin and 100 μg/mL of streptomycin) at the culturing conditions: 37° C., 5% of CO2 and a saturated humidity. A solution containing 0.25% of trypsin and 0.02% of EDTA was used for digestions and passages.
A MTT method was adopted. The HepG2 cells were inoculated in a 96-well cell culture plate, and after 24 hour cultures, the (+)IMM-H014, the (−)IMM-H014 and the (±)IMM-H014 were added in a non-toxic concentration whilst the carbon tetrachloride (CCl4, a final concentration of 0.6%) was added thereto. A Bicyclol positive control group, a solvent control group and a model group were set for the experiment. They acted on the cells continuously for 24 h. The culture solution was discarded, and to each well, 100 μL of a MTT (0.5 mg/mL) solution was added to culture for 4 hours. The MTT solution was discarded, and to each well, 150 μL of DMSO was added. The mixture was oscillated by a mixing oscillator, and the absorbance value was measured at a wavelength of 570 nm in a microplate reader. Cell survival rate (%)=(OD mean of administration group/OD mean of solvent control group)×100%.
(§1) The data were presented as a number mean±standard deviation (x±SD).

Assay [2] concerns HepG2 cells. As to the kind of experiment: 4-Acetamidophenol (APAP)-induced in vitro hepatocyte injury, MTT and LDH. Particulars: HepG2, 10 μM, 8 mM APAP. The assay is classed as cell-based, human. Here is the method:
Human liver cancer HepG2 cell well retained the characteristics of normal human hepatocytes, and they were grown in a DMEM medium containing 10% of fetal calf cerium (containing 100 U/mL of penicillin and 100 μg/mL of streptomycin) at the culturing conditions: 37° C., 5% of CO2 and a saturated humidity. A solution containing 0.25% of trypsin and 0.02% of EDTA was used for digestions and passages.
A MTT method was adopted. The HepG2 cells were inoculated in a 96-well cell culture plate, and after 24 hour cultures, the (+)IMM-H014, the (−)IMM-H014 and the (±)IMM-H014 were added in a non-toxic concentration whilst the 4-acetamidophenol (APAP, a final concentration of 8 mM) was added thereto. A Bicyclol positive control group, a solvent control group and a model group were set for the experiment. The culture was continued for 24 h. 100 μL of the culture solution was taken and centrifuged, and a full-automatic biochemical analyzer in a LDH detection kit was utilized to detect the LDH level therein. The remaining culture solution was discarded, and to each well, 100 μL of a MTT (0.5 mg/mL) solution was added to continue the culture for 4 hours. The MTT solution was discarded, and to each well, 150 μL of DMSO was added. The mixture was oscillated by a mixing oscillator, and the absorbance value was measured at a wavelength of 570 nm in a microplate reader. Cell survival rate (%)=(OD mean of administration group/OD mean of solvent control group)×100%.
as §1

In the case of `COC(=O)c1cc(OC)c2c(c1-c1c(CO)cc(OC)c3c1OCO3)OCO2` [Bicyclol], the “Survival rates (%)” value with HepG2 cells [1] (0.6% CCl4, 24 h, MTT) turned out to be 89.47%; with HepG2 cells [2] (24 h, MTT), 50.67%. For the same compound, the “OD Mean ± SD” value came to 0.819 ± 0.099 in the assay on HepG2 cells [1] (0.6% CCl4, 24 h, MTT, 570 nm) and 0.454 ± 0.092 with HepG2 cells [2] (24 h, MTT, 570 nm). Further, the “Cell survival rate increase (%)” value was 15.36% with HepG2 cells [1] (0.6% CCl4, versus model group) and 32.2% in the assay on HepG2 cells [2] (versus model group).
